Results taken from ChEMBL document CHEMBL1139429, “2-Thiazolylimino/heteroarylimino-5-arylidene-4-thiazolidinones as new agents with SHP-2 inhibitory action” (J Med Chem, 2008).

What follows are molecules tested against T1, Tyrosine-protein phosphatase non-receptor type 11 (Homo sapiens, UniProt Q06124) (assay: Inhibition of human recombinant GST-fused SHP2 using p-nitrophenyl phosphate as substrate).
T1 sequence (Q06124 whole entry): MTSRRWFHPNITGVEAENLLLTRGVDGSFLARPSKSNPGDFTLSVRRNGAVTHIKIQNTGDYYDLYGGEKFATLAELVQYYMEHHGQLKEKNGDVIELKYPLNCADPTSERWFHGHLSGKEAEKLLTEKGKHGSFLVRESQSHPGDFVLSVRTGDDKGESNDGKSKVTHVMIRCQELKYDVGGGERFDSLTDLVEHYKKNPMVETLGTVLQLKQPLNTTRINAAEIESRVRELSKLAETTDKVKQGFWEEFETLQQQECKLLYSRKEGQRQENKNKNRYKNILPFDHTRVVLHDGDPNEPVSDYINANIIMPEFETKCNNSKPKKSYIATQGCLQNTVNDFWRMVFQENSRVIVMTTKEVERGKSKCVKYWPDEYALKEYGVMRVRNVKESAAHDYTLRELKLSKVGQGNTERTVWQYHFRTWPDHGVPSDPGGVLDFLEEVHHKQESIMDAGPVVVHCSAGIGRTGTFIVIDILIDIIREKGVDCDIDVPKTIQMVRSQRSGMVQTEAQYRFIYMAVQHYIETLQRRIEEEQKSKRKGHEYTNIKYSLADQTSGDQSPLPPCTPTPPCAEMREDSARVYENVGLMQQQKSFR

Structure (SMILES) | Ki
COc1ccc(/C=C2/S/C(=N\c3nsc4ccccc34)NC2=O)cc1 | 22.8 µM
COc1cc(/C=C2/S/C(=N/c3nc(-c4ccccc4)cs3)NC2=O)ccc1O | 103 µM
O=C1N/C(=N\c2nc3ccccc3s2)S/C1=C/c1cccc([N+](=O)[O-])c1 | 28.7 µM
O=C1N/C(=N\c2nccs2)S/C1=C/c1ccc([N+](=O)[O-])cc1 | 474 µM
O=C1N/C(=N\c2nccs2)S/C1=C/c1cccc(Cl)c1 | 1090 µM
COc1cc(/C=C2/S/C(=N\c3nsc4ccccc34)NC2=O)ccc1O | 90.8 µM

The next molecules have a lower Ki than those just listed; values first:

Ki | Structure (SMILES)
18.1 µM | COc1cc(/C=C2/S/C(=N/c3nc4ccccc4s3)NC2=O)cc(OC)c1O
12.9 µM | COc1cc(/C=C2/S/C(=N/c3nc4ccc([N+](=O)[O-])cc4s3)NC2=O)cc(OC)c1O
12.3 µM | COc1cc(/C=C2/S/C(=N/c3nc(C45CC6CC(CC(C6)C4)C5)cs3)NC2=O)ccc1O
11.7 µM | COc1ccc(/C=C2/S/C(=N/c3nccs3)NC2=O)cc1
